# ChEMBL document CHEMBL4190179 (Medchemcomm, 2016)
# Species on record: Mus musculus
# Experiment: (§1) Inhibition of PMA-stimulated Il-17A production in mouse Th17 cells by live/dead fixable dead cell staining based flow cytometric analysis
# Type: functional
row,SMILES,inhibition
1,O=C(Nc1ccc(-c2cc(OC(F)(F)F)ccc2Cl)cc1)c1c(F)cccc1F,Dose-dependent effect

# Test system: not listed separately
# Experiment: as §1
# Type: functional
row,IC50 [nM],SMILES
1,13,O=C(Nc1ccc(-c2cc(OC(F)(F)F)ccc2Cl)cc1)c1c(F)cccc1F

# Target: T1, Nuclear receptor ROR-gamma (Homo sapiens, UniProt P51449)
# T1 sequence (P51449 whole entry): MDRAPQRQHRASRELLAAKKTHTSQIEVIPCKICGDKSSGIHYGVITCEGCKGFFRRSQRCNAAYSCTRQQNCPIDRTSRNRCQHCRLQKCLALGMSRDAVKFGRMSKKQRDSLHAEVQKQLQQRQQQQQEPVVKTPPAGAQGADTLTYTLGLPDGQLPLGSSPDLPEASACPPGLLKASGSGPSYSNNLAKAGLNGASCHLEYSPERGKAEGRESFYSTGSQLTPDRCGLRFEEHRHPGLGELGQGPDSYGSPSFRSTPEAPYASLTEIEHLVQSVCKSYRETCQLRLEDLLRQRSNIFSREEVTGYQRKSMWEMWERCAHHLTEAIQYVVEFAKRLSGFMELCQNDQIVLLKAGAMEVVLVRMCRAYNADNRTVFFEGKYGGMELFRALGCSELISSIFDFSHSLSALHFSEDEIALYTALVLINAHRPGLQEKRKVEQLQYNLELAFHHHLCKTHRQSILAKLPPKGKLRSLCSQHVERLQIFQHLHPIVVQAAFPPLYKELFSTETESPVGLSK
# Experiment: Inverse agonist activity at RORgammat (unknown origin) by FRET assay
row,IC50 [nM],SMILES
1,> 50000,O=C(Nc1ccc(-c2cc(OC(F)(F)F)ccc2Cl)cc1)c1c(F)cccc1F

# Test system: not listed separately
# Experiment: Inhibition of PMA-stimulated Il-17A production in mouse Th17 cells at 0.3 uM by live/dead fixable dead cell staining based flow cytometric analysis relative to control
# Type: functional
row,SMILES,inhibition at 0.3 µM [%]
1,COc1ccc(Cl)c(-c2ccc(NC(=O)c3c(F)cccc3F)cc2Cl)c1,75
2,COc1ccc(Cl)c(-c2cccc(NC(=O)c3c(F)cccc3F)c2)c1,12
3,COc1ccc(Cl)c(-c2ccc(NC(=O)c3ccccc3C(F)(F)F)cc2)c1,25
4,O=C(Nc1ccc(-c2ccccc2Cl)cc1)c1c(F)cccc1F,48
5,COc1ccc(Cl)c(-c2ccc(NC(=O)C3CCCCC3)cc2)c1,26
6,O=C(O)c1ccc(Cl)c(-c2ccc(NC(=O)c3c(F)cccc3F)cc2)c1,7
7,COc1ccc(Cl)c(-c2ccc(NC(=O)c3c(F)cccc3F)cc2)c1,71
8,COc1ccc(Cl)c(-c2ccc(NC(=O)c3ncccc3F)cc2)c1,22
9,COc1ccc(Cl)c(-c2ccc(NC(=O)CCc3ccccc3)cc2)c1,24
10,COc1ccc(Cl)c(-c2ccc(NC(=O)c3ccccc3)cc2)c1,35
11,Cn1cc(-c2ccc(NC(=O)c3c(F)cccc3F)cc2)cn1,-7
12,COc1ccc(Cl)c(-c2ccc(NC(=O)Cc3ccccc3F)cc2)c1,19
13,COc1ccc(Cl)c(-c2ccc(NC(=O)C3CCCO3)cc2)c1 (configuration not stated),30
14,COc1ccc(Cl)c(-c2ccc(NC(=O)C3CCOCC3)cc2)c1,35
15,COc1ccc(Cl)c(-c2ccc(NC(=O)C3CCCC3)cc2)c1,34
16,O=C(Nc1ccc(-c2cc(OC(F)(F)F)ccc2Cl)cc1)c1c(F)cccc1F,97
17,O=C(Nc1ccc(-c2cccnc2)cc1)c1c(F)cccc1F,17

row,SMILES,inhibition at 0.3 µM [%]
1,COc1ccc(Cl)c(-c2ccc(NC(=O)C3CC3)cc2)c1,35
2,COc1ccc(C)c(-c2ccc(NC(=O)c3c(F)cccc3F)cc2)c1,93
3,COc1ccc(Cl)c(-c2ccc(NC(=O)c3c(F)cccc3F)cc2F)c1,82
4,COc1ccc(Cl)c(-c2ccc(NC(=O)C3CCN(C)CC3)cc2)c1,16
5,O=C(Nc1ccc(-c2ccccc2)cc1)c1c(F)cccc1F,45
6,COc1ccc(Cl)c(-c2ccc(NC(=O)c3ccccc3F)cc2)c1,43
7,COc1ccc(Cl)c(-c2ccc(NC(=O)Cc3ccccc3)cc2)c1,33
8,COCC(=O)Nc1ccc(-c2cc(OC)ccc2Cl)cc1,1
9,COc1ccc(Cl)c(-c2ccc(NC(C)=O)cc2)c1,11
10,COc1ccc(Cl)c(-c2ccc(NC(=O)c3c(F)cccc3Cl)cc2)c1,64
11,Cc1ccccc1-c1ccc(NC(=O)c2c(F)cccc2F)cc1,60
12,COc1ccc(Cl)c(-c2ccc(NC(=O)CC3CC3)cc2)c1,9
13,COc1ccc(Cl)c(-c2ccc(NC(=O)c3c(F)cccc3F)cn2)c1,29
14,COc1ccc(Cl)c(-c2ccc(NC(=O)CC3CCOCC3)cc2)c1,8
15,Cc1ccc(-c2ccc(NC(=O)c3c(F)cccc3F)cc2)cn1,4
16,COc1ccc(Cl)c(-c2ccc(NC(=O)c3ccccc3Cl)cc2)c1,39
17,COc1ccc(Cl)c(-c2ccc(NC(=O)C(C)C)cc2)c1,22
